Values joined by “and” are separate entries in the source; they are usually repeats but may differ in a detail not shown here. Equal values may be shown once.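 How tested: cells in 96-well plates exposed to compound for 48 hours at five concentrations. The concentration for 50% growth inhibition is given as GI50. TGI denotes the concentration required for complete inhibition of growth.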
Tests used:
Assay in all cases: growth of human tumour cells (NCI), 48 h
A549 NSCLC = system: A549 NSCLC
TK-10 renal = system: TK-10 renal
LOX IMVI melanoma = system: LOX IMVI melanoma
OVCAR-3 ovarian = system: OVCAR-3 ovarian
DMS 114 small cell lung = system: DMS 114 small cell lung
DLD-1 colon = system: DLD-1 colon
HOP-18 NSCLC = system: HOP-18 NSCLC
LXFL 529 NSCLC = system: LXFL 529 NSCLC
KM20L2 colon = system: KM20L2 colon
SNB-78 CNS = system: SNB-78 CNS
DMS 273 small cell lung = system: DMS 273 small cell lung
XF 498 CNS = system: XF 498 CNS
M19-MEL melanoma = system: M19-MEL melanoma

O=[N+]([O-])c1ccc(Nc2nc3ccccc3s2)cc1
TGI (A549 NSCLC): > 100 µM | TGI (TK-10 renal): 88 µM | TGI (LOX IMVI melanoma): 38.9 µM | TGI (OVCAR-3 ovarian): 57.7 µM

C[C@H]1C[C@H](C)c2ccccc2N(C)C1=Nc1ccccc1
TGI (A549 NSCLC): > 100 µM | TGI (TK-10 renal): 55.6 µM | TGI (LOX IMVI melanoma): 31.7 µM | TGI (OVCAR-3 ovarian): 80 µM

Cc1nn(-c2ccccc2)c2[nH]c(=S)cnc12
TGI (A549 NSCLC): > 100 µM | TGI (TK-10 renal): > 100 µM | TGI (LOX IMVI melanoma): > 100 µM | TGI (OVCAR-3 ovarian): > 100 µM

COC(=O)c1ccccc1/C=C1\Cc2cc(C)cc(C)c2C1=O
TGI (A549 NSCLC): > 100 µM | TGI (TK-10 renal): > 100 µM | TGI (LOX IMVI melanoma): > 100 µM | TGI (OVCAR-3 ovarian): > 100 µM

O=C(CCc1ccc(O)cc1)NCCc1cccc(OCc2ccccc2)c1
TGI (A549 NSCLC): > 100 µM | TGI (TK-10 renal): 79.5 µM | TGI (LOX IMVI melanoma): 30.4 µM | TGI (OVCAR-3 ovarian): 35.1 µM

COc1cc(C2=C(C#N)C(N)OC3=C2COc2ccccc23)cc(OC)c1OC (centres undefined)
TGI (A549 NSCLC): 49.3 µM | TGI (TK-10 renal): 30.2 µM | TGI (LOX IMVI melanoma): > 100 µM | TGI (OVCAR-3 ovarian): 34.3 µM

CCCCCCCCCCCCC(O)C1CCC(C(O)CCCCCCC(O)CCCCCCCC2=CC(C)OC2=O)O1 (centres undefined)
GI50 (A549 NSCLC): 21.7 µM | TGI (A549 NSCLC): > 100 µM | TGI (TK-10 renal): > 100 µM | TGI (LOX IMVI melanoma): 39.8 µM | TGI (OVCAR-3 ovarian): 45.7 µM

O=C(c1cccs1)N(C(=S)N1CCN(c2ccccn2)CC1)C1CCCCC1
TGI (DMS 114 small cell lung): > 100 µM | TGI (DLD-1 colon): > 100 µM | TGI (HOP-18 NSCLC): > 100 µM | TGI (LXFL 529 NSCLC): > 100 µM | TGI (A549 NSCLC): > 100 µM | TGI (TK-10 renal): > 100 µM | TGI (KM20L2 colon): > 100 µM | TGI (SNB-78 CNS): > 100 µM | TGI (LOX IMVI melanoma): > 100 µM | TGI (DMS 273 small cell lung): > 100 µM | TGI (OVCAR-3 ovarian): > 100 µM

CCCCCC(CO)C(O)(C(F)(F)F)C(F)(F)F (centres undefined)
TGI (A549 NSCLC): > 10 µM | TGI (TK-10 renal): > 10 µM | TGI (LOX IMVI melanoma): > 10 µM | TGI (OVCAR-3 ovarian): > 10 µM

Cn1c(Nc2ccccc2)c(C=Nc2ccccc2)c(=O)n(C)c1=O
TGI (A549 NSCLC): > 100 µM | TGI (TK-10 renal): > 100 µM | TGI (LOX IMVI melanoma): > 100 µM | TGI (OVCAR-3 ovarian): > 100 µM

COc1cc(C2c3cc4c(cc3OC(Nc3ccccc3)C2C)OCO4)cc(OC)c1OC (centres undefined)
TGI (A549 NSCLC): > 100 µM | TGI (TK-10 renal): > 100 µM | TGI (LOX IMVI melanoma): > 100 µM

O=c1cc(CBr)c2ccc(O)cc2o1
TGI (A549 NSCLC): > 100 µM | TGI (TK-10 renal): > 100 µM | TGI (LOX IMVI melanoma): > 100 µM | TGI (OVCAR-3 ovarian): > 100 µM

C(=NCc1ccccc1)c1ccccc1-c1ccccc1C=NCc1ccccc1
TGI (A549 NSCLC): > 10 µM | TGI (TK-10 renal): > 10 µM | TGI (LOX IMVI melanoma): > 10 µM | TGI (OVCAR-3 ovarian): > 10 µM

CCOC(=O)c1c(-c2ccc(O)c(OC)c2)c(C#N)c(=S)n(C2OC(COC(C)=O)C(OC(C)=O)C(OC(C)=O)C2OC(C)=O)c1-c1ccccc1 (centres undefined)
TGI (A549 NSCLC): > 100 µM | TGI (LOX IMVI melanoma): > 100 µM | GI50 (OVCAR-3 ovarian): 21.6 µM and 56.8 µM | TGI (OVCAR-3 ovarian): 48.4 µM and > 100 µM

CC1=CC(=O)C(=O)C2=C1OC1(C2)C(C)CCC2C3(C)CCC(O)C(C)(C)C3CCC21C (centres undefined)
TGI (DMS 114 small cell lung): 33.6 µM | TGI (DLD-1 colon): 41.8 µM | TGI (LXFL 529 NSCLC): 33.6 µM | TGI (A549 NSCLC): > 100 µM | TGI (TK-10 renal): 34.5 µM | TGI (KM20L2 colon): 37.4 µM | TGI (XF 498 CNS): 34 µM | TGI (SNB-78 CNS): 64.6 µM | TGI (LOX IMVI melanoma): 35.8 µM | TGI (DMS 273 small cell lung): 60.9 µM | TGI (OVCAR-3 ovarian): 34.6 µM | TGI (M19-MEL melanoma): 34.4 µM

NC(CCP(=O)(O)CCC1C=CC=CC1)C(=O)O (centres undefined)
TGI (A549 NSCLC): > 100 µM | TGI (TK-10 renal): > 100 µM | TGI (LOX IMVI melanoma): > 100 µM | TGI (OVCAR-3 ovarian): > 100 µM

CCC1=CC2Cc3nc4cc(Cl)ccc4c(N)c3C(C1)C2 (centres undefined)
TGI (A549 NSCLC): 30.8 µM | TGI (TK-10 renal): 13.6 µM | TGI (LOX IMVI melanoma): 19.2 µM | TGI (OVCAR-3 ovarian): 21.9 µM

CN(C)CCCCN1c2ccccc2Sc2cc(N=[N+]=[N-])ccc21
TGI (A549 NSCLC): 3.37 µM | TGI (TK-10 renal): 4.86 µM | TGI (LOX IMVI melanoma): 3.06 µM | TGI (OVCAR-3 ovarian): 3.59 µM

O=c1c2cc([N+](=O)[O-])ccc2n2n1Cc1ccccc1C2
TGI (A549 NSCLC): > 100 µM | TGI (TK-10 renal): > 100 µM | TGI (LOX IMVI melanoma): > 100 µM | TGI (OVCAR-3 ovarian): > 100 µM

COc1ccc(NC(C)=O)cc1C1CCC(=O)N1 (centres undefined)
TGI (A549 NSCLC): > 100 µM | TGI (TK-10 renal): > 100 µM | TGI (LOX IMVI melanoma): > 100 µM | TGI (OVCAR-3 ovarian): > 100 µM

CN(C(=O)Cc1ccc(Cl)c(Cl)c1)[C@@H]1CCCC[C@H]1[N+]1(C)CC=CC1
TGI (A549 NSCLC): > 100 µM | TGI (TK-10 renal): > 100 µM | TGI (LOX IMVI melanoma): > 100 µM | TGI (OVCAR-3 ovarian): > 100 µM

O=c1[nH]c(=S)[nH]n1C(=S)n1[nH]c(=S)[nH]c1=O
TGI (A549 NSCLC): > 100 µM | TGI (TK-10 renal): > 100 µM | TGI (LOX IMVI melanoma): > 100 µM | TGI (OVCAR-3 ovarian): > 100 µM

C=C(Br)CN(C(C)=O)C1CCCCC1
TGI (A549 NSCLC): > 100 µM | TGI (TK-10 renal): > 100 µM | TGI (LOX IMVI melanoma): > 100 µM | TGI (OVCAR-3 ovarian): > 100 µM

N#CC(Nc1ccccc1)c1ccc(C(C#N)Nc2ccccc2)cc1 (centres undefined)
TGI (A549 NSCLC): > 100 µM | TGI (TK-10 renal): > 100 µM | TGI (LOX IMVI melanoma): > 100 µM | TGI (OVCAR-3 ovarian): > 100 µM

CC(=O)NC1C(O)C(O)C(CO)OC1n1ncc(=O)[nH]c1=O (centres undefined)
TGI (A549 NSCLC): > 100 µM | TGI (TK-10 renal): > 100 µM | TGI (LOX IMVI melanoma): > 100 µM | TGI (OVCAR-3 ovarian): > 100 µM

CCCCCCCCC/C=C1\CC(CO)(COC(=O)C2CCCCC2)OC1=O (centres undefined)
TGI (A549 NSCLC): 48.3 µM | TGI (TK-10 renal): 49.8 µM | TGI (LOX IMVI melanoma): 24 µM | TGI (OVCAR-3 ovarian): 33.4 µM

CCOP(=O)(OCC)c1ccc(=O)[nH]c1-c1cccs1
TGI (A549 NSCLC): > 100 µM | TGI (TK-10 renal): > 100 µM | TGI (OVCAR-3 ovarian): > 100 µM

COc1cccc2c(Nc3ccc(S(=O)(=O)NC(C)=O)cc3)c3ccc([N+](=O)[O-])cc3nc12
TGI (A549 NSCLC): > 100 µM | TGI (TK-10 renal): > 56.7 µM | TGI (LOX IMVI melanoma): > 100 µM | TGI (OVCAR-3 ovarian): > 90.4 µM

O=C(O)c1ccc(Nc2nc3ccccc3nc2-c2cccs2)cc1
TGI (A549 NSCLC): > 100 µM | TGI (TK-10 renal): > 100 µM | TGI (LOX IMVI melanoma): > 100 µM | TGI (OVCAR-3 ovarian): > 100 µM

O=C1c2c(ccc3c2CCC3)CC12Cc1cc3c(cc1C2)CCC3
TGI (A549 NSCLC): > 100 µM | TGI (TK-10 renal): > 100 µM | TGI (LOX IMVI melanoma): > 100 µM | TGI (OVCAR-3 ovarian): > 100 µM

O=C1c2ccccc2C2=Nc3ccncc3CN12
TGI (A549 NSCLC): > 100 µM | TGI (TK-10 renal): > 100 µM | TGI (OVCAR-3 ovarian): > 100 µM

OC(C/C(=N\N1CCCCC1)c1cccs1)(C(F)(F)F)C(F)(F)F
TGI (A549 NSCLC): > 10 µM | TGI (TK-10 renal): > 10 µM | TGI (LOX IMVI melanoma): > 10 µM | TGI (OVCAR-3 ovarian): > 10 µM

CN(C)C(=O)Nc1cc2c3c(c1)CCCN3CCC2
TGI (A549 NSCLC): > 10 µM | TGI (TK-10 renal): > 10 µM | TGI (LOX IMVI melanoma): > 10 µM | TGI (OVCAR-3 ovarian): > 10 µM

CCOC(=O)C1C(c2ccc(OC)cc2)c2c([nH][nH]c2=O)CC1(O)OCC (centres undefined)
TGI (A549 NSCLC): > 100 µM | TGI (TK-10 renal): > 100 µM | TGI (LOX IMVI melanoma): > 100 µM | TGI (OVCAR-3 ovarian): > 100 µM

From PubChem BioAssay (NCI)
